The values below come from paper PMC12563536, “A Novel Allosteric Inhibitor Targeting IMPDH at Y233 Overcomes Resistance to Tyrosine Kinase Inhibitors in Lymphoma” (Cancers, 2025).

pIC50: −log10 of the molar value. A value given as a limit tells only on which side of the number the result lay.

What all share (assay type): biochemical
In experiment [1] the target is T1, recombinant human IMPDH2 (Homo sapiens, UniProt P12268).
T1 construct: commercial recombinant protein (R&D Systems); 514 residues full length; tetramer/octamer
The experiment is described as follows: IMPDH activity assay, 96-well screen. The following applies: read-out: % inhibition at 10 μM.

Experiment [2] addresses T1, recombinant human IMPDH2. The experiment can be described thus: IMPDH activity assay kit, microplate, […] min preincubation. The following applies: dose-dependent, 50-200 µM tested.
Experiment [3] addresses T1, recombinant human IMPDH2. The experiment is described as follows: IMPDH activity assay kit, microplate. The following applies: targeted to allosteric GTP-binding site of the CBS domain (site from docking).

What is called inhibition is the change of the read-out against control, counted positive when it falls. The % inhibition is the drop in the measured response relative to a control, in per cent. In general, pIC50 refers to the negative decadic logarithm of the IC50, by convention in mol/L.

T1 sequence (P12268 2-514): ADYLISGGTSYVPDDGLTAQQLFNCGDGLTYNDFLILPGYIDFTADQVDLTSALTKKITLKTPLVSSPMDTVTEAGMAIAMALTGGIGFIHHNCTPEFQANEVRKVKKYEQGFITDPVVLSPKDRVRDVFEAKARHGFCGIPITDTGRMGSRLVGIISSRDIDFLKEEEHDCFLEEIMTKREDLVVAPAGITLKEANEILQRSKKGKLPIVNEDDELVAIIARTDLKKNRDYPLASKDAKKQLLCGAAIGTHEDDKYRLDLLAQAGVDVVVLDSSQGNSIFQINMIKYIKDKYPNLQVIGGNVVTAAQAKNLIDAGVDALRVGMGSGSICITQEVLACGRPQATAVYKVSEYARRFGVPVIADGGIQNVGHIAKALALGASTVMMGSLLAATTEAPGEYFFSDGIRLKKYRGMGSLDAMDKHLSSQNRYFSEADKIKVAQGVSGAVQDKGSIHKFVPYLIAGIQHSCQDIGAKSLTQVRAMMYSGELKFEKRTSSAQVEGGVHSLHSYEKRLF

As to `CN(C)c1ccc(C=c2sc3nc(=O)c(-c4ccccc4NC(=O)C(F)(F)F)nn3c2=O)cc1` [compound 5, comp-5], the inhibition at 10 µM on recombinant human IMPDH2 [1] was above 32%.

As for `CCCCCCCC(=O)OC[C@H](COP(=O)(O)O[C@@H]1[C@H](O)[C@H](OP(=O)(O)O)[C@@H](O)[C@H](O)[C@H]1O)OC(=O)CCCCCCC` [PI(3)P diC8], on recombinant human IMPDH2 [2], the “% inhibition at 200 μM” value is on record as above 50%.

Regarding `O=C1C=CC(=O)c2c(O)c(N3CCN(CCOCCO)CC3)c(Br)c(O)c21` [compound 10, Comp-10], at recombinant human IMPDH2 [3], the pIC50 was around 6.59.

In the case of `O=C1c2ccccc2C(=O)C1C(c1ccc([N+](=O)[O-])cc1)C1C(=O)c2ccccc2C1=O` [compound 12, comp-12], at recombinant human IMPDH2 [1], the inhibition at 10 µM was above 52%.
